Assay results reported in ChEMBL document CHEMBL3351499, “'Click' glycosylation of peptides through cysteine propargylation and CuAAC” (Bioorg Med Chem, 2014).
Residues, ends and D or L forms follow the SMILES beside them. *: point of attachment. X3 = OC[C@H]1O[C@H](OCCn2cc(C*)nn2)[C@@H](O)[C@@H](O)[C@@H]1O; X4 = OC[C@H]1O[C@@H](OCCn2cc(C*)nn2)[C@H](O)[C@@H](O)[C@@H]1O; X6 = O[C@@H]1[C@@H](O)[C@@H](OCCn2cc(C*)nn2)O[C@H](CF)[C@H]1O; X1 = OC[C@H]1O[C@@H](OCCn2cc(C*)nn2)[C@H](O)[C@@H](O)[C@H]1O; X2 = O[C@@H]1[C@@H](O)[C@H](OCCn2cc(C*)nn2)O[C@H](CF)[C@H]1O; X5 = O[C@@H]1[C@H](O)[C@@H](OCCn2cc(C*)nn2)O[C@H](CF)[C@H]1O

Assay: Antiplatelet activity in citrated human platelet rich plasma assessed as inhibition of ADP-induced platelet aggregation incubated for 10 mins at 37 degC by light transmission aggregometry
Assay type: functional

Row | SMILES | IC50 [µM]
1 | N=C(N)NCCC[C@H](N)C(=O)NCC(=O)N[C@@H](CC(=O)O)C(=O)N[C@@H](CSCc1cn(CCO[C@@H]2O[C@H](CO)[C@@H](O)[C@H](O)[C@H]2O)nn1)C(=O)O (H-RGDC(X4)-OH) | 44
2 | N=C(N)NCCC[C@@H]1NC(=O)[C@H](CS)NC(=O)[C@H](Cc2ccccc2)NC(=O)[C@H](CC(=O)O)NC(=O)CNC1=O (cyclo(RGDFC)) | 65
3 | N=C(N)NCCC[C@H](N)C(=O)NCC(=O)N[C@@H](CC(=O)O)C(=O)N[C@@H](CSCc1cn(CCO[C@H]2O[C@H](CF)[C@@H](O)[C@H](O)[C@@H]2O)nn1)C(=O)O (H-RGDC(X5)-OH) | 23.5
4 | NC(N)=NCCC[C@H](N)C(=O)NCC(=O)N[C@@H](CC(=O)O)C(=O)O | 319
5 | CC(C)[C@@H]1NC(=O)[C@H](Cc2ccccc2)NC(=O)[C@H](CC(=O)O)NC(=O)CNC(=O)[C@H](CCCNC(=N)N)NC1=O | 72
6 | N=C(N)NCCC[C@H](N)C(=O)NCC(=O)N[C@@H](CC(=O)O)C(=O)N[C@@H](CSCc1cn(CCO[C@@H]2O[C@H](CO)[C@H](O)[C@H](O)[C@H]2O)nn1)C(=O)O (H-RGDC(X1)-OH) | 23

Other lines, results leading:

Row | IC50 [µM] | SMILES
7 | 47.6 | N=C(N)NCCC[C@H](N)C(=O)NCC(=O)N[C@@H](CC(=O)O)C(=O)N[C@@H](CSCc1cn(CCO[C@H]2O[C@H](CO)[C@@H](O)[C@H](O)[C@@H]2O)nn1)C(=O)O (H-RGDC(X3)-OH)
8 | 148 | N=C(N)NCCC[C@@H]1NC(=O)[C@H](CSCc2cn(CCO[C@@H]3O[C@H](CF)[C@@H](O)[C@H](O)[C@H]3O)nn2)NC(=O)[C@H](Cc2ccccc2)NC(=O)[C@H](CC(=O)O)NC(=O)CNC1=O
9 | 26 | N=C(N)NCCC[C@H](N)C(=O)NCC(=O)N[C@@H](CC(=O)O)C(=O)N[C@@H](CSCc1cn(CCO[C@H]2O[C@H](CF)[C@@H](O)[C@H](O)[C@H]2O)nn1)C(=O)O (H-RGDC(X6)-OH)
10 | 66 | N=C(N)NCCC[C@H](N)C(=O)NCC(=O)N[C@@H](CC(=O)O)C(=O)N[C@@H](CSCc1cn(CCO[C@@H]2O[C@H](CF)[C@@H](O)[C@H](O)[C@H]2O)nn1)C(=O)O (H-RGDC(X2)-OH)
11 | 76.5 | N=C(N)NCCC[C@H](N)C(=O)NCC(=O)N[C@@H](CC(=O)O)C(=O)N[C@@H](CSCc1cn(C[C@H]2O[C@H](O[C@H]3O[C@H](Cn4cc(CSC[C@H](NC(=O)[C@H](CC(=O)O)NC(=O)CNC(=O)[C@@H](N)CCCNC(=N)N)C(=O)O)nn4)[C@@H](O)[C@H](O)[C@H]3O)[C@@H](O)[C@@H](O)[C@@H]2O)nn1)C(=O)O
12 | 322 | NC(N)=NCCC[C@H](N)C(=O)NCC(=O)N[C@@H](CC(=O)O)C(=O)N[C@@H](CS)C(=O)O (H-RGDC-OH)
